Consider 16 compounds from patent publication US10953027B2, “Active agents and methods of their use for the treatment of metabolic disorders and nonalcoholic fatty liver disease” (Flagship Pioneering Innovations V, Inc., priority 2018, dated 2021).

Holding throughout (assay type): in vitro ADME
A short description of data set [1]: Assay 2. Stability in Simulated Intestinal Fluid (SIF). The note with it: 1 μM, 37° C., SIF pH 6.7 with pancreatin. Put shortly: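 Degradation rate measured by LC/MS after acetonitrile quench of timed aliquots, starting at T0. Test compound 1 μM in simulated intestinal fluid (pH 6.7 phosphate buffer, FaSSIF powder, pancreatin), shaken at 37 °C.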
A short description of data set [2]: Assay 3. Fecal Incubation Stability. The note with it: 1 or 10 μM, human fecal slurry, anaerobic. As for the experimental part: Assay 3. Fecal Incubation Stability. This assay was used to assess the stability of an acylated active agent in a large intestine. All experiments were performed in an anaerobic chamber containing 90% nitrogen, 5% hydrogen and 5% carbon dioxide. Human fecal matter in a slurry (15% WV) is added to 96 well plates containing YCFA media or other suitable media (1.6 mL). Compounds were added to each individual well to reach a final analyte concentration of 1 or 10 μM, and the material was mixed by pipetting. At set time points a sample was removed, quenched with acetonitrile, and analyzed by LC/MS.

A short description of data set [3]: Assay 1. Stability in Simulated Gastric Fluid (SGF). The note with it: 1 μM, 37° C., SGF pH 1.6 with pepsin. In short, it runs like this: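 Simulated gastric fluid, prepared fresh as NaCl buffer at pH 1.6 with 0.1 mg/mL pepsin and FaSSIF powder, received test compound to 1 μM final and was held at 37 °C. LC/MS of acetonitrile-quenched samples, taken immediately and then periodically, gave degradation rates.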

Structures are written as SMILES.

As for `CCCC(=O)OC[C@H]1O[C@H](OC)[C@H](OC(=O)CCC)[C@@H](OC(=O)CCC)[C@H]1OC(=O)CCC` [Compound 89, [(2R,3S,4S,5R,6S)-3,4,5-tris(butanoyloxy)-6-methoxyoxan-2-yl]methyl Butanoate], the “Assay 2 (SIF) (% @ Remaining 4 hours)” value in data set [1] is “A (A: <25% of the tested compound remaining)”. Also, the “Assay 3 (% Remaining at 24 h)” value in data set [2] is recorded as “A (A: <25% of the tested compound remaining)”.

`O=C(CCc1c[nH]c2ccccc12)O[C@H]1OC[C@H](OC(=O)CCc2c[nH]c3ccccc23)[C@H](OC(=O)CCc2c[nH]c3ccccc23)[C@H]1OC(=O)CCc1c[nH]c2ccccc12` [Compound 181, (2R,3R,4S,5S)-3,4,5-tris({[3-(1H-indol-3-yl)propanoyl]oxy})oxan-2-yl 3-(1H-indol-3-yl)propanoate]: the “Assay 2 (SIF) (% @ Remaining 4 hours)” value in data set [1] is recorded as “A (A: <25% of the tested compound remaining)”. In addition, the “Assay 3 (% Remaining at 24 h)” value in data set [2] is “A (A: <25% of the tested compound remaining)”.

For the compound `CCCC(=O)O[C@@H]1[C@@H](OC(=O)CCC)[C@H](OC(=O)CCc2c[nH]c3ccccc23)OC[C@H]1OC(=O)CCC` [Compound 129, (2S,3R,4S,5R)-4,5-bis(butanoyloxy)-2-{[3-(1H-indol-3-yl)propanoyl]oxy}oxan-3-yl Butanoate], the “Assay 1 (SGF) (% Remaining @ 1 hours)” value in data set [3] was “B (B: 25-75% of the tested compound remaining)”. Moreover, in data set [2], the “Assay 3 (% Remaining at 24 h)” value is recorded as “A (A: <25% of the tested compound remaining)”.

For `CCC(=O)OC[C@H]1O[C@@H](OC)[C@H](OC(=O)CC)[C@@H](OC(=O)CC)[C@@H]1OC(=O)CC` [Compound 92, [(2R,3R,4S,5R,6R)-6-methoxy-3,4,5-tris(propanoyloxy)oxan-2-yl]methyl Propanoate], the “Assay 2 (SIF) (% @ Remaining 4 hours)” value in data set [1] is listed as “A (A: <25% of the tested compound remaining)”. Further, the “Assay 3 (% Remaining at 24 h)” value in data set [2] was “A (A: <25% of the tested compound remaining)”.

Consider `CCCC(=O)O[C@@H]1[C@@H](OC(=O)CCC)[C@H](C)O[C@H](OC(=O)CCc2c[nH]c3ccccc23)[C@@H]1OC(=O)CCC` [Compound 119, (2R,3R,4R,5S,6S)-4,5-bis(butanoyloxy)-2-{[3-(1H-indol-3-yl)propanoyl]oxy}-6-methyloxan-3-yl Butanoate], for which the “Assay 1 (SGF) (% Remaining @ 1 hours)” value in data set [3] is “B (B: 25-75% of the tested compound remaining)”. For the same compound, in data set [2], the “Assay 3 (% Remaining at 24 h)” value is reported as “A (A: <25% of the tested compound remaining)”.

With `CCCC(=O)O[C@H]1[C@H](OC(=O)CCC)COC(O)[C@@H]1OC(=O)CCC` (stereo partly drawn) [Compound 190, (3R,4S,5R)-4,5-bis(butanoyloxy)-2-hydroxyoxan-3-yl Butanoate], the “Assay 2 (SIF) (% @ Remaining 4 hours)” value in data set [1] is listed as “A (A: <25% of the tested compound remaining)”. In addition, in data set [2], the “Assay 3 (% Remaining at 24 h)” value is “A (A: <25% of the tested compound remaining)”.

As to `CCC(=O)O[C@H]1[C@H](OC(=O)CC)[C@H](OC(=O)CCc2c[nH]c3ccccc23)O[C@@H](C)[C@H]1OC(=O)CC` [Compound 155, (2S,3S,4R,5R,6S)-6-methyl-3,4,5-tris(propanoyloxy)oxan-2-yl 3-(1H-indol-3-yl)propanoate], the “Assay 2 (SIF) (% @ Remaining 4 hours)” value in data set [1] is on record as “C (C: >75% of the tested compound remaining)”. For the same compound, the “Assay 3 (% Remaining at 24 h)” value in data set [2] is reported as “A (A: <25% of the tested compound remaining)”.

`CCC(=O)O[C@@H]1[C@@H](OC(=O)CC)[C@H](OC(=O)/C=C/c2c[nH]c3ccccc23)OC[C@@H]1OC(=O)CC` [Compound 132, (2S,3R,4S,5S)-3,4,5-tris(propanoyloxy)oxan-2-yl (2E)-3-(1H-indol-3-yl)prop-2-enoate]: the “Assay 1 (SGF) (% Remaining @ 1 hours)” value in data set [3] is on record as “B (B: 25-75% of the tested compound remaining)”. Moreover, the “Assay 3 (% Remaining at 24 h)” value in data set [2] is “A (A: <25% of the tested compound remaining)”.

As for `CCC(=O)OC[C@H]1O[C@H](OC(=O)/C=C/c2c[nH]c3ccccc23)[C@H](OC(=O)CC)[C@@H](OC(=O)CC)[C@@H]1OC(=O)CC` [Compound 131, (2R,3R,4S,5R,6R)-3,4,5-tris(propanoyloxy)-6-[(propanoyloxy)methyl]oxan-2-yl (2E)-3-(1H-indol-3-yl)prop-2-enoate], the “Assay 1 (SGF) (% Remaining @ 1 hours)” value in data set [3] is listed as “B (B: 25-75% of the tested compound remaining)”. In addition, in data set [2], the “Assay 3 (% Remaining at 24 h)” value is “A (A: <25% of the tested compound remaining)”.

On to `C[C@@H]1O[C@@H](OC(=O)CCc2c[nH]c3ccccc23)[C@@H](OC(=O)CCc2c[nH]c3ccccc23)[C@H](OC(=O)CCc2c[nH]c3ccccc23)[C@@H]1OC(=O)CCc1c[nH]c2ccccc12` [Compound 97, (2S,3S,4R,5R,6S)-3,4,5-tris({[3-(1H-indol-3-yl)propanoyl]oxy})-6-methyloxan-2-yl 3-(1H-indol-3-yl)propanoate], for which the “Assay 2 (SIF) (% @ Remaining 4 hours)” value in data set [1] is listed as “A (A: <25% of the tested compound remaining)”. Also, the “Assay 3 (% Remaining at 24 h)” value in data set [2] is “A (A: <25% of the tested compound remaining)”.

In the case of `CCCC(=O)O[C@@H]1[C@@H](OC(=O)CCC)[C@H](OC)OC[C@H]1OC(=O)CCC` [Compound 121, (2R,3R,4S,5R)-4,5-bis(butanoyloxy)-2-methoxyoxan-3-yl Butanoate], the “Assay 2 (SIF) (% @ Remaining 4 hours)” value in data set [1] is listed as “A (A: <25% of the tested compound remaining)”. Moreover, in data set [2], the “Assay 3 (% Remaining at 24 h)” value is recorded as “A (A: <25% of the tested compound remaining)”.

Consider `CCCC(=O)OC[C@H]1O[C@@H](OC)[C@H](OC(=O)CCC)[C@@H](OC(=O)CCC)[C@H]1OC(=O)CCC` [Compound 93, [(2R,3S,4S,5R,6R)-3,4,5-tris(butanoyloxy)-6-methoxyoxan-2-yl]methyl Butanoate], for which, in data set [1], the “Assay 2 (SIF) (% @ Remaining 4 hours)” value is given as “A (A: <25% of the tested compound remaining)”. Further, in data set [2], the “Assay 3 (% Remaining at 24 h)” value is on record as “A (A: <25% of the tested compound remaining)”.

For the compound `CCCC(=O)O[C@H]1[C@H](OC(=O)CCC)[C@@H](OC(=O)CCc2c[nH]c3ccccc23)O[C@@H](C)[C@H]1OC(=O)CCC` [Compound 120, (2R,3S,4R,5R,6S)-4,5-bis(butanoyloxy)-2-{[3-(1H-indol-3-yl)propanoyl]oxy}-6-methyloxan-3-yl Butanoate], the “Assay 1 (SGF) (% Remaining @ 1 hours)” value in data set [3] was “B (B: 25-75% of the tested compound remaining)”. In addition, in data set [2], the “Assay 3 (% Remaining at 24 h)” value is “A (A: <25% of the tested compound remaining)”.

As to `CCC(=O)OC[C@H]1O[C@@H](OC)[C@H](OC(=O)CC)[C@@H](OC(=O)CC)[C@H]1OC(=O)CC` [Compound 94, [(2R,3S,4S,5R,6R)-6-methoxy-3,4,5-tris(propanoyloxy)oxan-2-yl]methyl Propanoate], the “Assay 2 (SIF) (% @ Remaining 4 hours)” value in data set [1] is “A (A: <25% of the tested compound remaining)”. The “Assay 3 (% Remaining at 24 h)” value in data set [2] is on record as “A (A: <25% of the tested compound remaining)”.

As for `CCCC(=O)OC[C@H]1O[C@@H](OC)[C@H](OC(=O)CCC)[C@@H](OC(=O)CCC)[C@@H]1OC(=O)CCC` [Compound 91, [(2R,3R,4S,5R,6R)-3,4,5-tris(butanoyloxy)-6-methoxyoxan-2-yl]methyl Butanoate], the “Assay 2 (SIF) (% @ Remaining 4 hours)” value in data set [1] is listed as “A (A: <25% of the tested compound remaining)”. Also, the “Assay 3 (% Remaining at 24 h)” value in data set [2] was “A (A: <25% of the tested compound remaining)”.

On to `O=C(CCc1c[nH]c2ccccc12)Oc1ccc2c(c1)oc(=O)c1cc(OC(=O)CCc3c[nH]c4ccccc34)c(OC(=O)CCc3c[nH]c4ccccc34)cc12` [Compound 246, 8,9-bis({[3-(1H-indol-3-yl)propanoyl]oxy})-6-oxo-6H-benzo[c]chromen-3-yl 3-(1H-indol-3-yl)propanoate], for which, in data set [1], the “Assay 2 (SIF) (% @ Remaining 4 hours)” value is reported as “B (B: 25-75% of the tested compound remaining)”. The “Assay 3 (% Remaining at 24 h)” value in data set [2] is on record as “B (B: 25-75% of the tested compound remaining)”.
